In patent US20090275499A1, “NONSTRUCTURAL PROTEIN NS1 AS A NOVEL THERAPEUTIC TARGET AGAINST FLAVIVIRUSES” (priority 2008, published 2009):
Entries after “also recorded” stand apart in the source; their conditions may differ.

Experiments:
DENV sNS1 secretion [1] = tested on: DENV sNS1 secretion
Procedure: Vero cells were infected with DENV-1 at an MOI of 1 for 2 h at 37° C. An uninfected control was included. At seven hours post infection, cells were either mock-treated or treated with D-threo-1-phenyl-2-palmitoylamino-3-pyrrolidino-1-propanol (P4; Calbiochem, San Diego, Calif.) at 2 or 5 μM, combined or not with 1 mM DMJ (Calbiochem, San Diego, Calif.). At 24 hours post infection, cells were washed and incubated for 1 h in methionine/cysteine-free DMEM before metabolically labeling proteins for 4 h in methionine/cysteine-free DMEM supplemented with a mix of ^35S-labeled methionine/cysteine. The NS1 protein was then immunoprecipitated from cell lysates prepared in 25 mM Tris-HCl pH 7.6, 150 mM NaCl, 1% NP-40, 1% sodium deoxycholate, 0.1% SDS, or from the supernatant, with anti-NS1 MAb 13A1 (kindly provided by Dr. Robert Putnak). Immunoprecipitated proteins were separated by SDS-PAGE and detected on an X-ray film.

DENV sNS1 secretion [2] = settings: DENV-infected Vero cells; Flamand et al., 1999; cited from earlier work
[3] = tested on: TNF-α-mediated induction of E-selectin expression; assay: TNF-α-mediated induction of E-selectin expression in HUVEC (cell-based ELISA); design: species or system human; settings: TNF-α 10 ng/ml pre-incubated with PMB
DENV sNS1 protein = assay: Inhibition of DENV sNS1-mediated endothelial cell activation (E-selectin cell-based ELISA in HUVEC); design: species or system Dengue virus (DENV-1)
Procedure: Activation of endothelial cells by the DENV sNS1 protein has been monitored by the production of adhesion molecule E-selectine, as previously described (Kayal et al., 1999). Briefly, HUVEC cell monolayers were incubated with various concentrations of the purified sNS1 protein for different periods of time. Cells were washed once with warm M199 medium supplemented with 20% FCS and twice with serum-free M199 before fixation for 10 min in ice-cold PBS containing 4% paraformaldehyde. Cells were then rinsed with PBS and treated with a 10% bovine serum albumin (BSA) solution in PBS to reduce non-specific binding of antibodies. Plates were then sequentially incubated for 2 h at room temperature (RT) with primary anti-E-selectin monoclonal antibody (BBA2, R&D Systems, Minneapolis, Minn.) at a dilution of 1:2000 in PBS containing 5% BSA (PBS/BSA), and a secondary peroxidase-conjugated rabbit anti-mouse IgG (Sigma, St. Louis, Mo.) at a dilution of 1:4000 in PBS/BSA. After extensive washes in PBS/BSA and PBS alone, bound antibodies were detected using the TMB Microwell peroxidase substrate system (KPL). The reaction was stopped after 3-5 min by addition of 2.5 N sulfuric acid and the absorbance values were read at a wavelength of 450 nm. […]

Vero cells = settings: 5 μM P4, Vero cells

For `OC[C@H]1NC[C@@H](O)[C@@H](O)[C@@H]1O` [DMJ, deoxymannojirymicin], the “sNS1 secretion, combination of P4 and DMJ” value (DENV sNS1 secretion [1]; P4 2 or 5 μM + DMJ 1 mM, DENV-infected Vero (kidney) cells) is given as “additional effect on P4 inhibition” and the “sNS1 secretion, DMJ alone” value (DENV sNS1 secretion [2]) is given as “impairs sNS1 secretion”.
In the case of polymyxin B [PMB], the “TNF-α-mediated induction of E-selectin expression” value [3] is reported as “did not show any effect”, the “expression of E-selectin in response to the sNS1 protein” value (DENV sNS1 protein; HUVEC pulse treated with sNS1 (10 μg/ml) pre-incubated with PMB 2 and 10 μg/ml, 15 min-6 h, fixed at 6 h) is reported as “repressive effect” and the “sNS1-induced HUVEC (endothelial cell) activation” value (DENV sNS1 protein; no detectable LPS in purified sNS1 preparations) is reported as “very efficiently block endothelial cell activation by sNS1; also recorded: abrogated the ability of DENV sNS1 to activate HUVEC; also recorded: blocks sNS1-induced HUVEC activation”.
For `CCCCCCCCCCCCCCCC(=O)N[C@H](CN1CCCC1)[C@H](O)c1ccccc1` [P4, D-threo-1-phenyl-2-palmitoylamino-3-pyrrolidino-1-propanol], the “secretion of sNS1” value (DENV sNS1 secretion [1]; P4 alone, DENV-infected Vero cells, MOI 1, effect stated at 5 μM P4) was “significantly reduced; also recorded: interferes with sNS1 secretion” and the cell viability (Vero cells) was “without compromising cell viability”.
